Species on record: Rattus norvegicus
Assay: Open TG-GATES - Regimen: Single
Assay type: toxicity, organism-based, Sprague-Dawley
Design: regimen Single, gender Male, age 6 weeks
Conditions: in vivo, po, route gavage; for APTT / Bas / Eos / Fbg / Hb / Ht / Lym / MCH / MCHC / MCV / Mono / Neu / PT / Plat / Ret / WBC: tissue Blood; for KIDNEY_L / KIDNEY_R / KIDNEY_TOTAL: tissue Kidney; for LIVER: tissue Liver; for ALP / ALT / AST / BUN / CRE / Ca / DBIL / GLC / IP / K / LDH / Na / PL / RALB / TBIL / TC / TG / TP / gamma-GTP: tissue Plasma

CN(C)CCCN1c2ccccc2CCc2ccc(Cl)cc21 [CLOMIPRAMINE]
APTT (10 mg/kg, 3 h, dose level Low): 17.9 s
Bas (10 mg/kg, 3 h, dose level Low): 0.4%
Eos (10 mg/kg, 3 h, dose level Low): 1%
Fbg (10 mg/kg, 3 h, dose level Low): 240 mg/dL
Hb (10 mg/kg, 3 h, dose level Low): 14 g/dL
Ht (10 mg/kg, 3 h, dose level Low): 43.3%
Lym (10 mg/kg, 3 h, dose level Low): 81%
MCH (10 mg/kg, 3 h, dose level Low): 20.7 pg
MCHC (10 mg/kg, 3 h, dose level Low): 32.4%
MCV (10 mg/kg, 3 h, dose level Low): 63.9 fL
Mono (10 mg/kg, 3 h, dose level Low): 3.4%
Neu (10 mg/kg, 3 h, dose level Low): 13.8%
PT (10 mg/kg, 3 h, dose level Low): 13.5 s
Plat (10 mg/kg, 3 h, dose level Low): 129 x10_4/uL
Ret (10 mg/kg, 3 h, dose level Low): 7.8%
WBC (10 mg/kg, 3 h, dose level Low): 74.4 x10_2/uL
KIDNEY_L (10 mg/kg, 3 h, dose level Low): 1 g
KIDNEY_R (10 mg/kg, 3 h, dose level Low): 1 g
KIDNEY_TOTAL (10 mg/kg, 3 h, dose level Low): 1.9 g
LIVER (10 mg/kg, 3 h, dose level Low): 10 g
ALP (10 mg/kg, 3 h, dose level Low): 1810.4 IU/L
ALT (10 mg/kg, 3 h, dose level Low): 41.2 IU/L
AST (10 mg/kg, 3 h, dose level Low): 75.8 IU/L
BUN (10 mg/kg, 3 h, dose level Low): 9.8 mg/dL
CRE (10 mg/kg, 3 h, dose level Low): 0.2 mg/dL
Ca (10 mg/kg, 3 h, dose level Low): 10.7 mg/dL
DBIL (10 mg/kg, 3 h, dose level Low): 0.01 mg/dL
GLC (10 mg/kg, 3 h, dose level Low): 189 mg/dL
IP (10 mg/kg, 3 h, dose level Low): 9 mg/dL
K (10 mg/kg, 3 h, dose level Low): 4.3 meq/L
LDH (10 mg/kg, 3 h, dose level Low): 123 IU/L
Na (10 mg/kg, 3 h, dose level Low): 140.6 meq/L
PL (10 mg/kg, 3 h, dose level Low): 148.6 mg/dL
RALB (10 mg/kg, 3 h, dose level Low): 2.5 g/dL
TBIL (10 mg/kg, 3 h, dose level Low): 0.074 mg/dL
TC (10 mg/kg, 3 h, dose level Low): 76.2 mg/dL
TG (10 mg/kg, 3 h, dose level Low): 78 mg/dL
TP (10 mg/kg, 3 h, dose level Low): 5.2 g/dL
gamma-GTP (10 mg/kg, 3 h, dose level Low): 1.2 IU/L
TERMINAL_BW (10 mg/kg, 6 h, dose level Low): 215.1 g
APTT (10 mg/kg, 6 h, dose level Low): 17 s
Bas (10 mg/kg, 6 h, dose level Low): 0%
Eos (10 mg/kg, 6 h, dose level Low): 0.4%
Fbg (10 mg/kg, 6 h, dose level Low): 254.8 mg/dL
Hb (10 mg/kg, 6 h, dose level Low): 14 g/dL
Ht (10 mg/kg, 6 h, dose level Low): 43.7%
Lym (10 mg/kg, 6 h, dose level Low): 79.6%
MCH (10 mg/kg, 6 h, dose level Low): 21 pg
MCHC (10 mg/kg, 6 h, dose level Low): 32.1%
MCV (10 mg/kg, 6 h, dose level Low): 65.5 fL
Mono (10 mg/kg, 6 h, dose level Low): 3%
Neu (10 mg/kg, 6 h, dose level Low): 15.6%
PT (10 mg/kg, 6 h, dose level Low): 13.6 s
Plat (10 mg/kg, 6 h, dose level Low): 119.7 x10_4/uL
Ret (10 mg/kg, 6 h, dose level Low): 7.9%
WBC (10 mg/kg, 6 h, dose level Low): 81.1 x10_2/uL
KIDNEY_L (10 mg/kg, 6 h, dose level Low): 1 g
KIDNEY_R (10 mg/kg, 6 h, dose level Low): 1 g
KIDNEY_TOTAL (10 mg/kg, 6 h, dose level Low): 2 g
LIVER (10 mg/kg, 6 h, dose level Low): 9.3 g
ALP (10 mg/kg, 6 h, dose level Low): 1661 IU/L
ALT (10 mg/kg, 6 h, dose level Low): 39.4 IU/L
AST (10 mg/kg, 6 h, dose level Low): 78.4 IU/L
BUN (10 mg/kg, 6 h, dose level Low): 9.4 mg/dL
CRE (10 mg/kg, 6 h, dose level Low): 0.2 mg/dL
Ca (10 mg/kg, 6 h, dose level Low): 10.8 mg/dL
DBIL (10 mg/kg, 6 h, dose level Low): 0.01 mg/dL
GLC (10 mg/kg, 6 h, dose level Low): 189.8 mg/dL
IP (10 mg/kg, 6 h, dose level Low): 9.4 mg/dL
K (10 mg/kg, 6 h, dose level Low): 4.2 meq/L
LDH (10 mg/kg, 6 h, dose level Low): 93 IU/L
Na (10 mg/kg, 6 h, dose level Low): 140.8 meq/L
PL (10 mg/kg, 6 h, dose level Low): 149 mg/dL
RALB (10 mg/kg, 6 h, dose level Low): 2.5 g/dL
TBIL (10 mg/kg, 6 h, dose level Low): 0.072 mg/dL
TC (10 mg/kg, 6 h, dose level Low): 83.4 mg/dL
TG (10 mg/kg, 6 h, dose level Low): 52.2 mg/dL
TP (10 mg/kg, 6 h, dose level Low): 5.3 g/dL
gamma-GTP (10 mg/kg, 6 h, dose level Low): 1.4 IU/L
TERMINAL_BW (10 mg/kg, 9 h, dose level Low): 213 g
APTT (10 mg/kg, 9 h, dose level Low): 15.9 s
Bas (10 mg/kg, 9 h, dose level Low): 0%
Eos (10 mg/kg, 9 h, dose level Low): 0.6%
Fbg (10 mg/kg, 9 h, dose level Low): 267.6 mg/dL
Hb (10 mg/kg, 9 h, dose level Low): 13.5 g/dL
Ht (10 mg/kg, 9 h, dose level Low): 41.8%
Lym (10 mg/kg, 9 h, dose level Low): 78.8%
MCH (10 mg/kg, 9 h, dose level Low): 20.9 pg
MCHC (10 mg/kg, 9 h, dose level Low): 32.2%
MCV (10 mg/kg, 9 h, dose level Low): 64.8 fL
Mono (10 mg/kg, 9 h, dose level Low): 2.2%
Neu (10 mg/kg, 9 h, dose level Low): 17.4%
PT (10 mg/kg, 9 h, dose level Low): 14.1 s
Plat (10 mg/kg, 9 h, dose level Low): 130.4 x10_4/uL
Ret (10 mg/kg, 9 h, dose level Low): 8.4%
WBC (10 mg/kg, 9 h, dose level Low): 80 x10_2/uL
KIDNEY_L (10 mg/kg, 9 h, dose level Low): 1 g
KIDNEY_R (10 mg/kg, 9 h, dose level Low): 0.9 g
KIDNEY_TOTAL (10 mg/kg, 9 h, dose level Low): 1.9 g
LIVER (10 mg/kg, 9 h, dose level Low): 9 g
ALP (10 mg/kg, 9 h, dose level Low): 1512 IU/L
ALT (10 mg/kg, 9 h, dose level Low): 35.8 IU/L
AST (10 mg/kg, 9 h, dose level Low): 67.8 IU/L
BUN (10 mg/kg, 9 h, dose level Low): 10.4 mg/dL
CRE (10 mg/kg, 9 h, dose level Low): 0.2 mg/dL
Ca (10 mg/kg, 9 h, dose level Low): 10.7 mg/dL
DBIL (10 mg/kg, 9 h, dose level Low): 0.01 mg/dL
GLC (10 mg/kg, 9 h, dose level Low): 187.8 mg/dL
IP (10 mg/kg, 9 h, dose level Low): 10.2 mg/dL
K (10 mg/kg, 9 h, dose level Low): 4 meq/L
LDH (10 mg/kg, 9 h, dose level Low): 84.2 IU/L
Na (10 mg/kg, 9 h, dose level Low): 140.2 meq/L
PL (10 mg/kg, 9 h, dose level Low): 138.2 mg/dL
RALB (10 mg/kg, 9 h, dose level Low): 2.5 g/dL
TBIL (10 mg/kg, 9 h, dose level Low): 0.064 mg/dL
TC (10 mg/kg, 9 h, dose level Low): 75.2 mg/dL
TG (10 mg/kg, 9 h, dose level Low): 74 mg/dL
TP (10 mg/kg, 9 h, dose level Low): 5.3 g/dL
gamma-GTP (10 mg/kg, 9 h, dose level Low): 1.4 IU/L
TERMINAL_BW (10 mg/kg, 24 h, dose level Low): 228.6 g
APTT (10 mg/kg, 24 h, dose level Low): 17.7 s
Bas (10 mg/kg, 24 h, dose level Low): 0%
Eos (10 mg/kg, 24 h, dose level Low): 1%
Fbg (10 mg/kg, 24 h, dose level Low): 249 mg/dL
Hb (10 mg/kg, 24 h, dose level Low): 13.6 g/dL
Ht (10 mg/kg, 24 h, dose level Low): 42.5%
Lym (10 mg/kg, 24 h, dose level Low): 77%
MCH (10 mg/kg, 24 h, dose level Low): 20.8 pg
MCHC (10 mg/kg, 24 h, dose level Low): 32.1%
MCV (10 mg/kg, 24 h, dose level Low): 65 fL
Mono (10 mg/kg, 24 h, dose level Low): 3%
Neu (10 mg/kg, 24 h, dose level Low): 17.6%
PT (10 mg/kg, 24 h, dose level Low): 13.7 s
Plat (10 mg/kg, 24 h, dose level Low): 124 x10_4/uL
Ret (10 mg/kg, 24 h, dose level Low): 7.7%
WBC (10 mg/kg, 24 h, dose level Low): 85.9 x10_2/uL
KIDNEY_L (10 mg/kg, 24 h, dose level Low): 1.1 g
KIDNEY_R (10 mg/kg, 24 h, dose level Low): 1 g
KIDNEY_TOTAL (10 mg/kg, 24 h, dose level Low): 2.1 g
ALP (10 mg/kg, 24 h, dose level Low): 1661.4 IU/L
ALT (10 mg/kg, 24 h, dose level Low): 42.6 IU/L
AST (10 mg/kg, 24 h, dose level Low): 74.4 IU/L
BUN (10 mg/kg, 24 h, dose level Low): 13 mg/dL
CRE (10 mg/kg, 24 h, dose level Low): 0.2 mg/dL
Ca (10 mg/kg, 24 h, dose level Low): 10.8 mg/dL
DBIL (10 mg/kg, 24 h, dose level Low): 0.012 mg/dL
GLC (10 mg/kg, 24 h, dose level Low): 179.8 mg/dL
IP (10 mg/kg, 24 h, dose level Low): 8.1 mg/dL
K (10 mg/kg, 24 h, dose level Low): 4 meq/L
LDH (10 mg/kg, 24 h, dose level Low): 88 IU/L
Na (10 mg/kg, 24 h, dose level Low): 141.8 meq/L
PL (10 mg/kg, 24 h, dose level Low): 144.4 mg/dL
RALB (10 mg/kg, 24 h, dose level Low): 2.6 g/dL
TBIL (10 mg/kg, 24 h, dose level Low): 0.062 mg/dL
TC (10 mg/kg, 24 h, dose level Low): 73.8 mg/dL
TG (10 mg/kg, 24 h, dose level Low): 91.6 mg/dL
TP (10 mg/kg, 24 h, dose level Low): 5.4 g/dL
gamma-GTP (10 mg/kg, 24 h, dose level Low): 1 IU/L
TERMINAL_BW (30 mg/kg, 3 h, dose level Middle): 217.9 g
